Assay results: ChEMBL document CHEMBL3994622, “Design and synthesis of new RAF kinase-inhibiting antiproliferative quinoline derivatives. Part 2: Diarylurea derivatives” (Eur J Med Chem, 2017)

Experiments:
Type in all cases: functional
SK-MEL-2 [1] = assay: Growth inhibition of human SK-MEL-2 cells assessed as cell growth at 0.01 uM incubated for 48 hrs by sulforhodamine B assay relative to control; details: SK-MEL-2, 48 h, read-out: Activity
786-0 [2] = assay: Growth inhibition of human 786-0 cells assessed as cell growth at 0.01 uM incubated for 48 hrs by sulforhodamine B assay relative to control; details: 786-0, 48 h, read-out: Activity
PC-3 = assay: Growth inhibition of human PC3 cells assessed as cell growth at 0.01 uM incubated for 48 hrs by sulforhodamine B assay relative to control; details: PC-3, 48 h, read-out: Activity
CCRF-CEM = assay: Growth inhibition of human CCRF-CEM cells assessed as cell growth at 0.1 uM incubated for 48 hrs by sulforhodamine B assay relative to control; details: read-out: Activity
MOLT-4 = assay: Growth inhibition of human MOLT4 cells assessed as cell growth at 0.1 uM incubated for 48 hrs by sulforhodamine B assay relative to control; details: MOLT-4, 48 h, read-out: Activity
SF-268 = assay: Growth inhibition of human SF268 cells assessed as cell growth at 0.1 uM incubated for 48 hrs by sulforhodamine B assay relative to control; details: SF-268, 48 h, read-out: Activity
SF-539 = assay: Growth inhibition of human SF539 cells assessed as cell growth at 0.1 uM incubated for 48 hrs by sulforhodamine B assay relative to control; details: SF-539, 48 h, read-out: Activity
SNB-19 = assay: Growth inhibition of human SNB19 cells assessed as cell growth at 0.1 uM incubated for 48 hrs by sulforhodamine B assay relative to control; details: SNB-19, 48 h, read-out: Activity
OVCAR-4 [3] = assay: Growth inhibition of human OVCAR4 cells assessed as cell growth at 0.1 uM incubated for 48 hrs by sulforhodamine B assay relative to control; details: OVCAR-4, 48 h, read-out: Activity
RXF 393 = assay: Growth inhibition of human RXF393 cells assessed as cell growth at 0.1 uM incubated for 48 hrs by sulforhodamine B assay relative to control; details: RXF 393, 48 h, read-out: Activity
DU-145 = assay: Growth inhibition of human DU145 cells assessed as cell growth at 0.1 uM incubated for 48 hrs by sulforhodamine B assay relative to control; details: DU-145, 48 h, read-out: Activity
OVCAR-4 [4] = assay: Growth inhibition of human OVCAR4 cells assessed as cell growth at 1 uM incubated for 48 hrs by sulforhodamine B assay relative to control; details: OVCAR-4, 48 h, read-out: Activity
NCI/ADR-RES = assay: Growth inhibition of human NCI/ADR-RES cells assessed as cell growth at 1 uM incubated for 48 hrs by sulforhodamine B assay relative to control; details: read-out: Activity
786-0 [5] = assay: Growth inhibition of human 786-0 cells assessed as cell growth at 1 uM incubated for 48 hrs by sulforhodamine B assay relative to control; details: 786-0, 48 h, read-out: Activity
A498 [6] = assay: Growth inhibition of human A498 cells assessed as cell growth at 1 uM incubated for 48 hrs by sulforhodamine B assay relative to control; details: A498, 48 h, read-out: Activity
SF-295 [7] = assay: Growth inhibition of human SF295 cells assessed as cell growth at 10 uM incubated for 48 hrs by sulforhodamine B assay relative to control; details: SF-295, 48 h, read-out: Activity
M14 [8] = assay: Growth inhibition of human M14 cells assessed as cell growth at 10 uM incubated for 48 hrs by sulforhodamine B assay relative to control; details: M14, 48 h, read-out: Activity
SK-MEL-2 [9] = assay: Growth inhibition of human SK-MEL-2 cells assessed as cell growth at 10 uM incubated for 48 hrs by sulforhodamine B assay relative to control; details: SK-MEL-2, 48 h, read-out: Activity
786-0 [10] = assay: Growth inhibition of human 786-0 cells assessed as cell growth at 10 uM incubated for 48 hrs by sulforhodamine B assay relative to control; details: 786-0, 48 h, read-out: Activity
HCC 2998 [11] = assay: Growth inhibition of human HCC2998 cells assessed as cell growth at 100 uM incubated for 48 hrs by sulforhodamine B assay relative to control; details: HCC 2998, 48 h, read-out: Activity
M14 [12] = assay: Growth inhibition of human M14 cells assessed as cell growth at 100 uM incubated for 48 hrs by sulforhodamine B assay relative to control; details: M14, 48 h, read-out: Activity
OVCAR-5 = assay: Growth inhibition of human OVCAR5 cells assessed as cell growth at 100 uM incubated for 48 hrs by sulforhodamine B assay relative to control; details: OVCAR-5, 48 h, read-out: Activity
HCC 2998 [13] = assay: Growth inhibition of human HCC2998 cells assessed as cell growth at 0.003 uM incubated for 48 hrs by sulforhodamine B assay relative to control; details: HCC 2998, 48 h, read-out: Activity
SW-620 = assay: Growth inhibition of human SW620 cells assessed as cell growth at 0.003 uM incubated for 48 hrs by sulforhodamine B assay relative to control; details: SW-620, 48 h, read-out: Activity
SF-295 [14] = assay: Growth inhibition of human SF295 cells assessed as cell growth at 0.003 uM incubated for 48 hrs by sulforhodamine B assay relative to control; details: SF-295, 48 h, read-out: Activity
BT-549 = assay: Growth inhibition of human BT549 cells assessed as cell growth at 0.003 uM incubated for 48 hrs by sulforhodamine B assay relative to control; details: BT-549, 48 h, read-out: Activity
NCI-H226 [15] = assay: Growth inhibition of human NCI-H226 cells assessed as cell growth at 0.03 uM incubated for 48 hrs by sulforhodamine B assay relative to control; details: NCI-H226, 48 h, read-out: Activity
CAKI-1 = assay: Growth inhibition of human Caki1 cells assessed as cell growth at 0.03 uM incubated for 48 hrs by sulforhodamine B assay relative to control; details: CAKI-1, 48 h, read-out: Activity
MCF7 = assay: Growth inhibition of human MCF7 cells assessed as cell growth at 0.03 uM incubated for 48 hrs by sulforhodamine B assay relative to control; details: MCF7, 48 h, read-out: Activity
HT-29 = assay: Growth inhibition of human HT-29 cells assessed as cell growth at 0.3 uM incubated for 48 hrs by sulforhodamine B assay relative to control; details: HT-29, 48 h, read-out: Activity
NCI-H226 [16] = assay: Growth inhibition of human NCI-H226 cells assessed as cell growth at 3 uM incubated for 48 hrs by sulforhodamine B assay relative to control; details: NCI-H226, 48 h, read-out: Activity
786-0 [17] = assay: Growth inhibition of human 786-0 cells assessed as cell growth at 3 uM incubated for 48 hrs by sulforhodamine B assay relative to control; details: 786-0, 48 h, read-out: Activity
SR = assay: Growth inhibition of human SR cells assessed as cell growth at 30 uM incubated for 48 hrs by sulforhodamine B assay relative to control; details: read-out: Activity
SK-MEL-5 = assay: Growth inhibition of human SK-MEL-5 cells assessed as cell growth at 30 uM incubated for 48 hrs by sulforhodamine B assay relative to control; details: SK-MEL-5, 48 h, read-out: Activity
A498 [18] = assay: Growth inhibition of human A498 cells assessed as cell growth at 30 uM incubated for 48 hrs by sulforhodamine B assay relative to control; details: A498, 48 h, read-out: Activity

Row | Structure (SMILES) | growth at 0.01 µM (SK-MEL-2 [1]) [%] | growth at 0.01 µM (786-0 [2]) [%] | growth at 0.01 µM (PC-3) [%] | growth at 0.1 µM (CCRF-CEM) [%] | growth at 0.1 µM (MOLT-4) [%] | growth at 0.1 µM (SF-268) [%] | growth at 0.1 µM (SF-539) [%] | growth at 0.1 µM (SNB-19) [%] | growth at 0.1 µM (OVCAR-4 [3]) [%] | growth at 0.1 µM (RXF 393) [%] | growth at 0.1 µM (DU-145) [%] | growth at 1 µM (OVCAR-4 [4]) [%] | growth at 1 µM (NCI/ADR-RES) [%] | growth at 1 µM (786-0 [5]) [%] | growth at 1 µM (A498 [6]) [%] | growth at 10 µM (SF-295 [7]) [%] | growth at 10 µM (M14 [8]) [%] | growth at 10 µM (SK-MEL-2 [9]) [%] | growth at 10 µM (786-0 [10]) [%] | growth at 100 µM (HCC 2998 [11]) [%] | other results
1 | COc1cc2cc(Oc3ccc(NC(=O)Nc4cc(C(F)(F)F)cc(C(F)(F)F)c4)cc3)c(C)nc2cc1OC | 106 | 89 | 92 | 97 | 104 | 92 | 94 | 97 | 83 | 99 | 100 | 58 | 62 | 87 | 74 | -76 | -59 | -51 | -90 | -92 | growth at 100 µM (M14 [12]): -66%; growth at 100 µM (OVCAR-5): -78%
2 | Cc1nc2cc(O)c(O)cc2cc1Oc1ccc(NC(=O)Nc2ccc(Cl)c(Cl)c2)cc1 | – | – | – | – | – | – | – | – | – | – | – | – | – | – | – | – | – | – | – | – | growth at 0.003 µM (HCC 2998 [13]): 99%; growth at 0.003 µM (SW-620): 100%; growth at 0.003 µM (SF-295 [14]): 93%; growth at 0.003 µM (BT-549): 91%; growth at 0.03 µM (NCI-H226 [15]): 103%; growth at 0.03 µM (CAKI-1): 94%; growth at 0.03 µM (MCF7): 89%; growth at 0.3 µM (HT-29): 103%; growth at 3 µM (NCI-H226 [16]): 102%; growth at 3 µM (786-0 [17]): 98%; growth at 30 µM (SR): -20%; growth at 30 µM (SK-MEL-5): -47%; growth at 30 µM (A498 [18]): 75%
3 | COc1cc2cc(Oc3ccc(NC(=O)Nc4ccc(Cl)c(Cl)c4)cc3)c(C)nc2cc1OC | 116 | 83 | 96 | 104 | 109 | 109 | 103 | 93 | 87 | 111 | 110 | 93 | 76 | 86 | 74 | -22 | 2 | -27 | 22 | -9 | growth at 100 µM (M14 [12]): -94%; growth at 100 µM (OVCAR-5): -44%
4 | COc1cc2cc(Oc3ccc(NC(=O)Nc4ccc(Cl)c(C(F)(F)F)c4)cc3)c(C)nc2cc1OC | – | – | – | – | – | – | – | – | – | – | – | – | – | – | – | – | – | – | – | – | growth at 0.003 µM (HCC 2998 [13]): 102%; growth at 0.003 µM (SW-620): 95%; growth at 0.003 µM (SF-295 [14]): 90%; growth at 0.003 µM (BT-549): 98%; growth at 0.03 µM (NCI-H226 [15]): 98%; growth at 0.03 µM (CAKI-1): 96%; growth at 0.03 µM (MCF7): 97%; growth at 0.3 µM (HT-29): 105%; growth at 3 µM (NCI-H226 [16]): 11%; growth at 3 µM (786-0 [17]): 16%; growth at 30 µM (SR): -43%; growth at 30 µM (SK-MEL-5): -97%; growth at 30 µM (A498 [18]): -98%
